Experimental data: US20250340569A1, “INHIBITORS OF KIF18A AND USES THEREOF” (Insilico Medicine IP Limited, priority 2023, published 2025)

How the values were obtained:
Kif18A = biological target: T1, Kif18A (Homo sapiens, UniProt Q8NI77); test: KIF18A assay (ADP Glo); conditions: biochemical assay, ADP Glo luminescence
T1 sequence (Q8NI77 1-898): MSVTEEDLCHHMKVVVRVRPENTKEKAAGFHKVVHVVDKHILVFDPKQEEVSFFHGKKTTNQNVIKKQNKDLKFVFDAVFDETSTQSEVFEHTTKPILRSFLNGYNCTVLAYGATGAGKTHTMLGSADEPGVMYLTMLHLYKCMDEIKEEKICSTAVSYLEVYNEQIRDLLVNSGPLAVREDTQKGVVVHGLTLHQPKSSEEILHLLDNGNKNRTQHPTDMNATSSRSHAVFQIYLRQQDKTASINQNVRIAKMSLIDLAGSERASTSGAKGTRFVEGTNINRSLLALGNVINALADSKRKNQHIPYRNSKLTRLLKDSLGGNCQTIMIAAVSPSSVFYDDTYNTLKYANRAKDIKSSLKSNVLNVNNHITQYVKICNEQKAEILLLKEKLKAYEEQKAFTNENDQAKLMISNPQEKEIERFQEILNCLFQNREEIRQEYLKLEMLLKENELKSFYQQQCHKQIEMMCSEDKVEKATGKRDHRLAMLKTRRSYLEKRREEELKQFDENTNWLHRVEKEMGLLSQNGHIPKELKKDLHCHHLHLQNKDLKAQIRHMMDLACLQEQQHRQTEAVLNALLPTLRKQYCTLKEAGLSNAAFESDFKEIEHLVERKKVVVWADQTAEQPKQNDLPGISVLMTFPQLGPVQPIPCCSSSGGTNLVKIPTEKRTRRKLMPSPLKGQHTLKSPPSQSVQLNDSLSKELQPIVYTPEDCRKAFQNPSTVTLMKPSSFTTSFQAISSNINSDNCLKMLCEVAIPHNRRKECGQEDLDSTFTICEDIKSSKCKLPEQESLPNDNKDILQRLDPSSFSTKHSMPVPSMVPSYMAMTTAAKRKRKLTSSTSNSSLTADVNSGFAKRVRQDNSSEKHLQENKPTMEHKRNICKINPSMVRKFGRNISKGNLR
Procedure: The KIF18A assay was performed as follows:
1.1. Prepared 1× Kinase Buffer
• a) Added 40 μL test compound to 384-well dilution plate • b) Diluted compound 1:3 in succession in DMSO for each column for 10 pts • c) Transferred 0.1 μL diluted compound solution to 384 assay plate using Echo, each column containing 2 replicates • d) Added 5 μL enzyme working solution to 384-well assay plate, centrifuge 1000 RPM for 1 min e) Incubated at 25° C. for 15 min • f) Added 5 μL ATP working solution to initiate reaction • g) Incubated at 25° C. for 60 min • h) Added 10 μL ADP Glo reagent, centrifuge 1000 RPM for 1 min • i) Incubated at 25° C. for 60 min • j) Added 20 μL kinase detection reagent, centrifuge 1000 RPM for 1 min • k) Incubated at 25° C. for 60 min • l) Read Luminescence Signal on Envision 2104 plate reader.
1.3. Data Analysis—Calculated IC50 and Plot Dose-Response Curve of Compounds:
Calculated IC50 by fitting % Inhibition values and log of compound concentrations to nonlinear regression (dose response−variable slope) with GraphPad 6.0.
[formula] • X: log of inhibitor concentration; Y: % Inhibition

OVCAR-3 = test: OVCAR3 CTG assay; assay type: cell-based; conditions: Homo sapiens, OVCAR-3, 144 h; CellTiter-Glo, 6 days incubation
Source text: Example B2: OVCAR3 CTG Assay
• a) Preparation of complete medium: Added FBS and appropriate additives according to the information sheet provided by the vendor. Mix gently. • b) Checked the cell name and complete medium and passage number marked on the flask. For adherent cell lines, refer to c to k. For suspension cell lines, refer to g to k. • c) Removed and discarded culture medium using a vacuum pump. • d) Briefly rinsed the cell layer with 0.25% (w/v) Trypsin-0.038% (w/v) EDTA solution to remove all traces of serum that contains trypsin inhibitor. • e) Added 3.0 ml of Trypsin-EDTA solution to flask and observed cells under an inverted microscope until cell layer is dispersed. • f) Added 9.0 ml of complete growth medium and aspirated cells by gently pipetting. • g) Transfered the cell suspension to a centrifuge tube and centrifuged at 1000 rpm for 4 minutes. • h) Discarded the supernatant using a vacuum pump. • i) Added appropriate volume of complete medium. Suspended the cell pellet by gently pipetting. • j) Counted the cell numbers with Vi-cell XR and adjusted cells to appropriate density. • k) Added 190 μL of cell suspension to 96-well opaque-walled clear bottom plates according to the planned plate layout and placed the plates in the CO2 incubator overnight.
2) Compound Stock Preparation:
• a) Plate preparation of testing articles:
The compounds were dissolved in DMSO to prepare 10 mM stock solution. The start working concentration (2 mM) was prepared with DMSO.
b) Staurosporine Plate Preparation:
0.4 mM Staurosporine was prepared in DMSO at working concentration.
The 20× compound containing medium was prepared according to the plate map. 10 μL of 20× compound containing medium was added into each well of the assay plates. Centrifuged at 1000 rpm for 1 minute. The total dilution was 200-fold.
3) Cells were Incubated with the Compounds for 6 Days at 5% CO2, 37° C.
Assay Measurement for CTG Assay
1) Preparation of Reagents
• a) Thawed the CellTiter-Glo buffer and equilibrated to room temperature prior to use. • b) Equilibrated the lyophilized CellTiter-Glo substrate to room temperature prior to use. • c) Transfered the appropriate volume of CellTiter-Glo buffer into the amber bottle containing CellTiter-Glo substrate to reconstitute the lyophilized enzyme/substrate mixture. This formed the CellTiter-Glo reagent. • d) Mixed by gently vortexing, swirling or by inverting the contents to obtain a homogeneous solution. The CellTiter-Glo substrate went into solution easily in less than one minute.
• a) Observed the cell morphology under an inverted microscope after corresponding treatment. • b) Equilibrated the plate and its contents to room temperature for approximately 30 minutes. • c) Added 100 μL of CellTiter-Glo reagent to the assay plate by Multidrop Combi instrument. • d) Mixed contents for 10 minutes on an orbital shaker to induce cell lysis. • e) Allowed the plate to incubate at room temperature for 10 minutes to stabilize luminescent signal. • f) Pasted the clear bottom with white back seal and record luminescence with Envision. The settings should be: Luminescence, measurement time 0.1 s.

| SMILES | IC50 (Kif18A) [nM] | IC50 (OVCAR-3) [nM] |
| --- | --- | --- |
| Cc1cc2nc(n1)NCCOC[C@@H]1CCC[C@H](COc3cc(NS(=O)(=O)CCO)ccc3C(=O)N2)C1 (relative stereo) [EX106] | 100 to 1000 | 1000 to 10000 |
| CC1CCCC2(C(F)(F)F)CCN(CC2)c2cc(NS(=O)(=O)CCO)ncc2C(=O)Nc2cccc(n2)NC1 (single isomer, unassigned) [EX100-B] | < 10 | < 10 |
| CC12CCN(CC1)c1cc(NS(=O)(=O)CCO)ccc1C(=O)Nc1cccc(n1)OCCOC2 [EX01] | 10 to 100 | 100 to 1000 |
| CC12CCN(CC1)c1cc(NS(=O)(=O)CCO)ccc1C(=O)Nc1cccc(n1)OCCCOC2 [EX02] | < 10 | 10 to 100 |
| Cc1cc2nc(n1)OCCOCC1(C)CCN(CC1)c1cc(NS(=O)(=O)CCO)ccc1C(=O)N2 [EX03] | 10 to 100 | 100 to 1000 |
| Cc1cc2nc(n1)N(C)CCOCC1(C)CCN(CC1)c1cc(NS(=O)(=O)CCO)ccc1C(=O)N2 [EX04] | 10 to 100 | 10 to 100 |
| Cc1cc2nc(n1)OCCCOCC1(C)CCN(CC1)c1cc(NS(=O)(=O)CCO)ccc1C(=O)N2 [EX05] | < 10 | 10 to 100 |
| Cc1cc2nc(n1)N(C)CCCOCC1(C)CCN(CC1)c1cc(NS(=O)(=O)CCO)ccc1C(=O)N2 [EX06] | < 10 | 100 to 1000 |
| CC12CCN(CC1)c1cc(NS(C)(=O)=O)ccc1C(=O)Nc1cccc(n1)OCCCOC2 [EX08] | < 10 | 100 to 1000 |
| Cc1cc2nc(n1)N(C)CCOCCC1(C)CCN(CC1)c1cc(NS(=O)(=O)CCO)ccc1C(=O)N2 [EX09] | 10 to 100 | 100 to 1000 |
| CN1CCOCC2(C)CCN(CC2)c2cc(NS(=O)(=O)CCO)ccc2C(=O)Nc2cccc(c2)C1=O [EX10] | 10 to 100 | 100 to 1000 |
| O=C1Nc2cccc(n2)OCCCOCC2CCN(CC2)c2cc(NS(=O)(=O)CCO)ccc21 [EX11] | 10 to 100 | 100 to 1000 |
| Cc1cc2nc(n1)NCCCOCC1(C)CCN(CC1)c1cc(NS(=O)(=O)CCO)ccc1C(=O)N2 [EX12] | 10 to 100 | 10 to 100 |
| CC12CCN(CC1)c1cc(NS(=O)(=O)CCO)ccc1C(=O)Nc1ccc(=O)n(n1)CCCCOC2 [EX13] | 10 to 100 | 100 to 1000 |
| Cc1cc2nc(n1)NCC(O)COCC1(C)CCN(CC1)c1cc(NS(=O)(=O)CCO)ccc1C(=O)N2 (stereo not drawn) [EX40] | 10 to 100 | – |
| O=C1Nc2cccc(n2)N2CCO[C@H](COCC3(C(F)(F)F)CCN(CC3)c3cc(NS(=O)(=O)CCO)ncc31)C2 [EX92-A] | – | 10 to 100 |
| O=C1Nc2ccnc(n2)N2CCO[C@H](COCC3(C(F)(F)F)CCN(CC3)c3cc(NS(=O)(=O)CCO)ccc31)C2 [EX93-A] | – | < 10 |
| O=C1Nc2ccnc(n2)N2CCO[C@@H](COCC3(C(F)(F)F)CCN(CC3)c3cc(NS(=O)(=O)CCO)ccc31)C2 [EX93-B] | – | 10 to 100 |
| CN1CCCOCC2(C(F)(F)F)CCN(CC2)c2cc(NS(=O)(=O)CCO)ccc2C(=O)Nc2cc(Cl)nc1n2 [EX94] | – | 100 to 1000 |
| CN1CCCOCC2(C(F)F)CCN(CC2)c2cc(NS(=O)(=O)CCO)ccc2C(=O)Nc2ccnc1n2 [EX95] | – | 10 to 100 |

| SMILES | IC50 (Kif18A) [nM] | IC50 (OVCAR-3) [nM] |
| --- | --- | --- |
| Cc1cc2nc(n1)N1CCO[C@H](COCC3(C(F)(F)F)CCN(CC3)c3cc(NS(=O)(=O)CCO)ccc3C(=O)N2)C1 [EX96-A] | – | < 10 |
| CCS(=O)(=O)Nc1cc2c(cn1)C(=O)Nc1cccc(n1)N(C)CCCOCC1(C(F)(F)F)CCN2CC1 [EX97] | – | 10 to 100 |
| CCS(=O)(=O)Nc1cc2c(cn1)C(=O)Nc1cccc(n1)N(C)CCCCCC1(C(F)(F)F)CCN2CC1 [EX98] | – | 100 to 1000 |
| CN1CCCOCC2(C(F)(F)F)CCN(CC2)c2cc(NS(=O)(=O)CCO)ccc2C(=O)Nc2cc(Cl)cc1n2 [EX99] | – | 100 to 1000 |
| C[C@@H]1CCCC2(C(F)(F)F)CCN(CC2)c2cc(NS(=O)(=O)CCO)ncc2C(=O)Nc2cccc(n2)NC1 [EX100-A] | – | 10 to 100 |
| CCS(=O)(=O)Nc1cc2c(cn1)C(=O)Nc1cccc(n1)NC[C@H](C)CCCC1(C(F)(F)F)CCN2CC1 [EX101-A] | – | 10 to 100 |
| CCS(=O)(=O)Nc1cc2c(cn1)C(=O)Nc1cccc(n1)NC[C@@H](C)CCCC1(C(F)(F)F)CCN2CC1 [EX101-B] | – | < 10 |
| C[C@H]1CCCC2(C(F)F)CCN(CC2)c2cc(NS(=O)(=O)CCO)ccc2C(=O)Nc2cccc(n2)NC1 [EX102-B] | – | < 10 |
| O=C1Nc2cccc(n2)NCCCCCC2(C(F)(F)F)CCN(CC2)c2cc(NS(=O)(=O)CCO)ccc21 [EX103] | – | < 10 |
| CN1CCCCCC2(C(F)(F)F)CCN(CC2)c2cc(NS(=O)(=O)CCO)c(F)cc2C(=O)Nc2cccc1n2 [EX104] | – | 10 to 100 |
| C[C@@H]1CCCC2(C(F)(F)F)CCN(CC2)c2cc(NS(=O)(=O)CCO)c(F)cc2C(=O)Nc2cccc(n2)NC1 [EX105-A] | – | < 10 |
| C[C@@H]1CCOCC2(C(F)(F)F)CCN(CC2)c2cc(NS(=O)(=O)CCO)ccc2C(=O)Nc2cccc(n2)N1 [EX107-A] | – | 100 to 1000 |
| C[C@H]1CCOCC2(C(F)(F)F)CCN(CC2)c2cc(NS(=O)(=O)CCO)ccc2C(=O)Nc2cccc(n2)N1 [EX107-B] | – | 10 to 100 |
| CN1CC(F)(F)COCC2(C(F)(F)F)CCN(CC2)c2cc(NS(=O)(=O)CCO)ccc2C(=O)Nc2cccc1n2 [EX108] | – | 100 to 1000 |
| O=C1Nc2cccc(n2)NCC(F)(F)COCC2(C(F)(F)F)CCN(CC2)c2cc(NS(=O)(=O)CCO)ccc21 [EX109] | – | 10 to 100 |
| CN1CCCOCC2(C(F)F)CCN(CC2)c2cc(NS(=O)(=O)CCO)ccc2C(=O)Nc2cccc1n2 [EX110] | – | 10 to 100 |
| Cc1cc2nc(n1)N1CCO[C@H](CCCC3(C(F)(F)F)CCN(CC3)c3cc(NS(=O)(=O)CCO)ccc3C(=O)N2)C1 [EX111-A] | – | 100 to 1000 |
| Cc1cc2nc(n1)N1CCO[C@@H](CCCC3(C(F)(F)F)CCN(CC3)c3cc(NS(=O)(=O)CCO)ccc3C(=O)N2)C1 [EX111-B] | – | 10 to 100 |
| Cc1cc2nc(n1)N1CCO[C@@H](COCC3(C(F)F)CCN(CC3)c3cc(NS(=O)(=O)CCO)ccc3C(=O)N2)C1 [EX113-B] | – | 10 to 100 |
| Cc1cc2nc(n1)N1CCC(F)(F)[C@H](CCCC3(C)CCN(CC3)c3cc(NS(=O)(=O)CCO)ccc3C(=O)N2)C1 [EX115-A] | – | 100 to 1000 |
